Like-named read-outs stand apart in the source and are kept apart here.

A short description of data set [1]: Inhalation (breath-hold) delivery of hyperpolarized 129Xe: uptake and delivery to the brain. The class given is in vivo, human. From the text:
In addition, due to the high solubility of ^129Xe in blood and tissues, vascular and tissue imaging using inhaled hyperpolarized ^129Xe has also been proposed. Generally described, during inhalation delivery, a quantity of hyperpolarized ^129Xe is inhaled by a subject (a subject breathes in the ^129Xe gas) and the subject then holds his or her breath for a short period of time, i.e., a “breath-hold” delivery. This inhaled ^129Xe gas volume then exits the lung space and is generally taken up by the pulmonary vessels and associated blood or pulmonary vasculature at a rate of approximately 0.3% per second. For example, for an inhaled quantity of about 1 liter of hyperpolarized ^129Xe, an estimated uptake is about 3 cubic centimeters per second or a total quantity of about 40 cubic centimeters of ^129Xe over about a 15 second breath-hold period. Accordingly, it has been noted that such uptake can be used to generate images of pulnonary vasculature or even organ systems more distant from the lungs. See co-pending and co-assigned U.S. patent application Ser. No. 09/271,476 to Driehuys et al, entitled Methods for Imaging Pulmonary and Cardiac Vasculature and Evaluating Blood Flow Using Dissolved Polarized ^129Xe. Although primarily directed to inhalation delivery, this application also proposes injection of ^129Xe to replace conventional radioactive tracers in perfusion imaging methods. The contents of this application are hereby incorporated by reference as if recited in full herein.
Many researchers are also interested in the possibility of using inhaled ^129Xe for imaging white matter perfusion in the brain, renal perfusion, and the like. While the inhaled delivery ^129Xe methods are suitable, and indeed, preferable, for many MRI applications for several reasons, such as the non-invasive characteristics attendant with such a delivery to a human subject, it may not be the most efficient method to deliver a sufficiently large dose to more distant (away from the pulmonary vasculature which is proximate to the lungs) target areas of interest. In addition, due to the dilution of the inhaled ^129Xe along the perfusion delivery path, relatively large quantities of the hyperpolarized ^129Xe are typically inhaled in order to deliver a small fraction of the gas to the more distal target sites or organ systems. For example, the brain typically receives only about 13% of the total blood flow in the human body. Thus, the estimated 40 cubic centimeter quantity of hyperpolarized ^129Xe taken up into the pulmonary vessels from the 1-liter inhalation dose can be reduced to only about 5 cubic centimeters by the time it reaches the brain.
Further, the hyperpolarized state of the gas is sensitive and can decay relatively quickly due to a number of relaxation mechanisms. Indeed, the relaxation time (generally represented by a decay constant “T1”) of the ^129Xe in the blood, absent other external depolarizing factors, is estimated at T1=4.0 seconds for venous blood and T1=6.4 s for arterial blood at a magnetic field strength of about 1.5 Tesla. See Wolber et al., Spin-lattice relaxation of laser-polarized xenon in human blood, 96 Proc. Natl. Acad. Sci. USA, pp. 3664-3669 (March 1999). (The more oxygenated arterial blood provides increased polarization life over the relatively de-oxygenated venous blood). […]

Data set [2] in a line: Relaxation time (T1) of polarized 129Xe in blood and lung. The class given is physicochemical, human. The source says:
Further, the hyperpolarized state of the gas is sensitive and can decay relatively quickly due to a number of relaxation mechanisms. Indeed, the relaxation time (generally represented by a decay constant “T1”) of the ^129Xe in the blood, absent other external depolarizing factors, is estimated at T1=4.0 seconds for venous blood and T1=6.4 s for arterial blood at a magnetic field strength of about 1.5 Tesla. See Wolber et al., Spin-lattice relaxation of laser-polarized xenon in human blood, 96 Proc. Natl. Acad. Sci. USA, pp. 3664-3669 (March 1999). (The more oxygenated arterial blood provides increased polarization life over the relatively de-oxygenated venous blood). Therefore, for about a 5 second transit time (the time estimate for the uptaken hyperpolarized ^129Xe to travel to the brain from the pulmonary vessels), the ^129Xe polarization is reduced to about 37% of its original value. In addition, the relaxation time of the polarized ^129Xe in the lung itself is typically about 20-25 seconds due to the presence of paramagnetic oxygen. Accordingly, ^129Xe taken up in the latter portion of the breath-hold cycle can decay to have only about 50% of the starting polarization (the polarization level at the initial portion of the breath hold cycle). Thus, generally stated, the average polarization of ^129Xe entering the pulmonary blood can be estimated to be at about 75% of the starting inhaled polarization value. Taking these effects into account, the delivery to the brain of the inhaled ^129Xe can be estimated as about 1.4 cubic centimeters of the inhaled one-liter dose of ^129Xe polarized to the same level as the inhaled gas (0.75×0.37×5 cc's). […] Nonetheless, at least one researcher has made coarse images of ^129Xe in rat brains, but this inhalation administration delivery required large quantities of ^129Xe to be inhaled over a relatively long period of time. […] Unfortunately, the extended inhalation time period and/or associated large quantity dosage of the gas may not be desirable for certain clinical applications.

Data set [3] is described as follows: Bubble dissipation model (Krogh's coefficient) for gas bubbles in blood.
Source text: To better understand bubble dissipation, one can model a string of contiguous bubbles as a cylinder to look at the diffusion of the gas out of the “cylinder” into the surrounding fluid to analyze how the bubble volume or radius decreases with time. Presser et al., in modeling a simulation as stated above, noted that the bubble radius “r” versus time can be represented by the equation: dr/dt=−KΔP/[rln(R/r)] where “K” is Krogh's coefficient (the product of solubility “S” and diffusion coefficient “D” of the gas in the surrounding fluid), “ΔP” is the pressure difference between gas in the bubbles and gas in the alveoli and “R” is the distance from the center of the bubbles to the inner edge of the adjacent alveoli.
That is, for comparative analysis, it is believed that one can evaluate the Krogh's coefficient (S×D) for Xe relative to air. The diffusion coefficient is substantially the same and can be cancelled out. For example, Xe in H2O is about 1.9×10^−5 cm^2/s while methane and water itself are at 2 and 2.3×10^−5 cm^2/s, respectively. Thus, solubility “S” becomes the important factor.
A short description of data set [4]: Relaxation of hyperpolarized gas on container surface materials (GE180 glass, high purity aluminum). The class given is physicochemical. Conditions: for ψ (relaxivity of GE180 glass for the gas): from T1 and A/V=3/R. From the text:
In order to calculate optimal capillary lengths, relaxivity values or estimates are needed. As a simple estimate, one can consider that an 180 cc spherical chamber of GE180 glass has a relaxation times of about 40 hr for ^3He and about 2 hr for ^129Xe. Knowing the relationship of “A/V=3/R” for a sphere, one can determine the relaxivity ψ of GE180 glass for both gases. The diffusion coefficients are noted for reference below.
The gas contacting surfaces of the injector head 300 can be formed of or coated with suitable materials to inhibit the depolarization of the gas as it travels therethrough. Examples of suitable materials include, but are not limited to, alumminosilicate glass, certain polymer materials or metallic materials or other materials as described herein. Surface coatings, such as a sputter coating of a non-depolarizing material of high purity silver or aluminum. The relaxivity of high purity aluminum for ^129Xe has been recently measured to be about 0.00225 cm/min. Metals other than aluminum which can be used include indium, gold, zinc, tin, copper, bismuth, silver, niobium, and oxides thereof. Preferably, “high purity” metals are employed (i.e., metals which are substantially free of paramagnetic or ferrous impurities) because even minute amounts of undesirable materials or contaminants may degrade the surface. Preferably, the metal is chosen such that it is well below 1 ppm in ferrous or paramagnetic impurity content.

Data set [5] in a line: NMR spectra after polarized 129Xe gas injection into the vein of a rabbit. Format: in vivo. From the text: The signal strength at 8 seconds (FIG. 10P) being about 0.65 that of the original signal (FIG. 10A).
The rabbit survived the experiment. […] The signal strength at 8 seconds (FIG. 10P) being about 0.65 that of the original signal (FIG. 10A). The rabbit was placed in a whole body imager so that the exact location of the signal within the rabbit's body is not disclosed in the spectra. It is noted that a large quantity of the injected gas remained in the gas phase upon injection, most likely due to the size of the lumen used, about 0.5 mm.

The conditions of data set [6]: inhalation, breath-hold; cited from earlier work.
The conditions of data set [7]: cited from earlier work.
The conditions of data set [8]: noted for reference; cited from earlier work.
The nature of data set [9]: Solubilities of gases in water, plasma, blood and tissues. Format: physicochemical. From the text:
The feasibility of gaseous ^129Xe injection, particularly for arterial injections, may appear problematic. For example, it is known that arterial injections of air can lead to an undesirable air embolus. Although with intravenous (IV) injection the introduction of air is less of a concern, great care is typically taken to avoid such occurrences. The injection of CO2 is successful because of its high solubility in blood and the body's unique ability to remove it. The solubility of CO2 in blood and plasma can be difficult to measure because it is chemically metabolized.
Nonetheless, it is believed that the solubility that is of primary interest for the discussion herein and that the CO2 metabolism can be disregarded for the purposes of this comparison.

For data set [10] the following is noted: cited from earlier work. The source holds these as a separate data set.

For the molecule `[129Xe]` [^129Xe], in [1] (from 40 cc taken up of 1-liter inhalation dose, brain receives about 13% of blood flow), the “Quantity by the time it reaches the brain” value is recorded as “about 5 cubic centimeters”. Besides, the “Quantity delivered to remote target (brain) as fraction of inhaled 129Xe” value in data set [1] (inhalation) is recorded as “about 0.14%”. The “Total quantity taken up” value in data set [1] (inhaled about 1 liter, about 15 second breath-hold) is “about 40 cubic centimeters”. Further, the “Delivery to the brain, as 129Xe polarized to the same level as the inhaled gas” value in data set [1] (inhaled one-liter dose (0.75×0.37×5 cc's)) is “about 1.4 cubic centimeters”. Further, the Estimated uptake entry in data set [1] (inhaled quantity about 1 liter) is listed as “about 3 cubic centimeters per second”. Further, the “Polarization remaining relative to original value after transit to the brain” value in data set [2] (about 5 second transit time from pulmonary vessels to brain) was “about 37%”. Further, in data set [2] (inhalation, breath-hold), the “Average polarization of 129Xe entering the pulmonary blood, of starting inhaled polarization” value is reported as “about 75%”. Further, the “Polarization of 129Xe taken up in the latter portion of the breath-hold cycle, of starting polarization” value in data set [2] (latter portion of breath-hold) is on record as “about 50%”. Also, the “Bubble dissipation rate relative to air in blood” value in data set [3] (in blood, faster than air) is listed as “about 11 times”. In data set [4], the “ψ (relaxivity of GE180 glass for the gas)” value was 0.00017 cm/s. The “Relaxivity of high purity aluminum for 129Xe” value in [4] (high purity aluminum surface) is on record as “about 0.00225 cm/min”. Also, the “Survival of the animal” value in data set [5] (about 3 cc gas injected into vein of rabbit) is “survived”. The “Phase of the injected gas in the bloodstream during acquisition” value in [5] (about 3 cc into vein of rabbit, about 8 seconds) was “remained substantially in the gas phase”. Besides, the “T1 of the gas in the blood” value in [5] (gas phase in the bloodstream, rabbit) is given as “at least 20 seconds”. Also, the “Rate of uptake of inhaled gas by pulmonary vessels and blood” value in data set [6] was “approximately 0.3 % per second”. In data set [7] (arterial blood, about 1.5 Tesla), the “Relaxation time T1 in arterial blood” value was 6.4 s. The “Relaxation time in the lung” value in [7] (in the lung, presence of paramagnetic oxygen) is 20 to 25 s. Besides, the “Relaxation time T1 in venous blood” value in data set [7] (venous blood, about 1.5 Tesla) is 4.0 s. For the same molecule, the “D (diffusion coefficient of the gas)” value in data set [8] is on record as 0.065 cm^2/s.

Take `[Xe]` [Xe, xenon]: in [9] (0.167/[…], air approximated as nitrogen), the “Solubility ratio of xenon gas to nitrogen gas in blood” value is listed as roughly 11. The “Solubility relative to air” value in data set [9] (in blood, compared with air) is recorded as “about 10 times”. Further, in data set [3] (30 μm radius bubble), the “Time for a 30 μm radius bubble to dissipate” value is “about 20 seconds”. The “Bubble dissipation rate (dr/dt)” value in data set [3] (estimated from solubility ratio to air in blood) was −1.5 μm/s. In addition, the “Diffusion coefficient in H2O” value in [10] was “about 1.9×10^−5 cm^2/s”.

For `O` [water], the “Diffusion coefficient in H2O” value in data set [10] is reported as 2.3×10^−5 cm^2/s.

As to `[3He]` [^3He, reference compound], the “ψ (relaxivity of GE180 glass for the gas)” value in data set [4] was 8.1e-06 cm/s. Also, the “D (diffusion coefficient of the gas)” value in [8] is given as 2.05 cm^2/s.

Take `C` [methane]: in data set [10] (exponent shared with the following value), the “Diffusion coefficient in H2O” value is 2 ×10^−5 cm^2/s.

Source of the values: US7560096B2, “Diagnostic procedures using direct injection of gaseous hyperpolarized 129Xe and associated systems and products” (Medi-Physics, Inc, priority 2000, dated 2009).
